Experimental data reported in patent US6344477B1, “Prostaglandin e agonists for treatment of dry eye” (Alcon Manufacturing, Ltd., priority 1998, dated 2002).

Columns and labels:
[1] = target: T1, EP4 Receptors in Chinese Hamster Ovary Cells (Cricetulus griseus, UniProt A0A061ILF4); experiment: cAMP production (radioimmunoassay) via EP4 receptors in Chinese hamster ovary cells; assay type: cell-based; conditions: 15-60 min at 23° C.; for EC50: read-out: Potency (EC50, nM) at EP4 Receptors in Chinese Hamster Ovary Cells
T1 construct: Chinese hamster ovary cells (containing EP4 receptors); endogenous in cells; host or cells: Chinese hamster ovary cells
Method: (§1) Immortalized human non-pigmented ciliary epithelial cells (containing EP2 receptors) and Chinese hamster ovary cells (containing EP4 receptors) were stimulated with various prostaglandins for 15-60 min at 23° C. The cAMP produced by receptor activation was determined by a specific radioimmunoassay as previously described (Sharif et. al., Pharmacological analysis of mast cell mediator and neurotransmitter receptors coupled to adenylate cyclase and phospholipase C on immunocytochemically-defined human conjunctival epithelial cells, J. Ocular Pharmacology & Therapeutics, 13:321-336 (1997); Crider et. al., Prostaglandin-stimulated adenylyl cyclase activity via a pharmacologically-defined EP2 receptor in human non-pigmented epithelial cells, J. Ocular Pharmacology & Therapeutics, 14:293-304 (1998); Crider et. al., Use of a semi-automated, robotic radioimmunoassay to measure cAMP generated by activation of DP-, EP2- and IP-prostaglandin receptors in human ocular and other cell-types, Prostaglandins, Leukotrienes & Fatty Acids, 59:77-82 (1998); Milne et. al., Human monocytes and cultured Chinese hamster ovary cells express EP4 receptors positively coupled to adenylate cyclase, Br. J. Pharmacology, 113 (supplement), 8p, (1994)).

[2] = target: T2, EP2 Receptors in Immortalized Human Non-pigmented Ciliary Epithelial Cells (Homo sapiens, UniProt P43116); experiment: cAMP production (radioimmunoassay) via EP2 receptors in immortalized human non-pigmented ciliary epithelial cells; assay type: cell-based; conditions: for EC50: cAMP production, 15-60 min at 23° C., read-out: Potency (EC50, nM) at EP2 Receptors in Immortalized Human Non-pigmented Ciliary Epithelial Cells
T2 construct: Immortalized human non-pigmented ciliary epithelial cells (containing EP2 receptors); endogenous in cells; host or cells: immortalized human non-pigmented ciliary epithelial cells
Method: as §1

T2 sequence (P43116 whole entry): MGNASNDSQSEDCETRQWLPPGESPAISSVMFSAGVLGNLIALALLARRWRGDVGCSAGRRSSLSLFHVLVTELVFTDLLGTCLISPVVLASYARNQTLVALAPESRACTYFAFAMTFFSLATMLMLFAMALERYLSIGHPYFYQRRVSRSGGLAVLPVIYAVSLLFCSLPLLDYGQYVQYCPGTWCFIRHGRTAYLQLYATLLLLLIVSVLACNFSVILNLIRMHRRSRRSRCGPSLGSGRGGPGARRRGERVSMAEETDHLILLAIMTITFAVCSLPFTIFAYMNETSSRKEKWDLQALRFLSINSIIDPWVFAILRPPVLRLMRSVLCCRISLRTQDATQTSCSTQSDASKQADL
T1 sequence (A0A061ILF4 1-488): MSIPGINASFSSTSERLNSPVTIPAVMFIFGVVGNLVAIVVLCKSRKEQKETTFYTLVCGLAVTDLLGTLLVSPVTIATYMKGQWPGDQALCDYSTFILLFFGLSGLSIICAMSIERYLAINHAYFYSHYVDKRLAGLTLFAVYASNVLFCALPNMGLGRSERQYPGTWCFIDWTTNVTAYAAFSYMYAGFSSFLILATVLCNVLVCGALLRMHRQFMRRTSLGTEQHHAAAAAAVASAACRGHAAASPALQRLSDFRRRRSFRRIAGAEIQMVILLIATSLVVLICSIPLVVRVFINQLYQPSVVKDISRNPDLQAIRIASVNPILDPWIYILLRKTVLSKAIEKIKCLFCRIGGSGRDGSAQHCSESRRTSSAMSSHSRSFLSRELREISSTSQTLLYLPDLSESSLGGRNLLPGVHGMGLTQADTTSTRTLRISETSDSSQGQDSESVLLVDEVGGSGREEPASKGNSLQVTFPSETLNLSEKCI

Compound | EC50 [1] [nM] | EC50 [2] [nM] | Efficacy at EP4 Receptors in Chinese Hamster Ovary Cells [1] [%] | Receptor selectivity EP2 versus EP4 ([2]; comparison of EC50 at EP2 and EP4 receptors)
CCCCC(C)(C)[C@H](O)/C=C/[C@H]1CCC(=O)[C@@H]1C/C=C\CCCC(=O)O [11-deoxy-16,16-dimethyl-PGE2, 11-deoxy-16,16,-dimethyl-PGE2] | 176 | 739 |  | 
CCCCC[C@H](O)/C=C/[C@H]1CCC(=O)[C@@H]1CCCCCCC(=O)O [11-deoxy-PGE1] | 38 | 500 | 86 | 
CCCCC(C)(C)[C@H](O)/C=C/[C@H]1[C@H](O)CC(=O)[C@@H]1C/C=C\CCCC(=O)O [16,16-dimethyl-PGE2] | 31 | 686 |  | 
CCCC1([C@H](O)C/C=C/[C@H]2[C@H](O)CC(=O)[C@@H]2CCCCCCC(=O)OC)CCC1 [Butaprost, reference compound] | > 10000 | 212 |  | more EP2-selective
